Each block holds one compound with its values, some of them ahead of it.
Tests used:
[1] = system: Streptococcus mutans; assay: Antibacterial activity against Streptococcus mutans OMZ175 assessed as inhibition of biofilm formation at 6 uM relative to control; assay type: functional
[2] = system: Streptococcus mutans; assay: Antibacterial activity against Streptococcus mutans ATCC 25175 assessed as effect on planktonic growth at 21.9 ug/ml after 20 hrs relative to control; assay type: functional
[3] = system: Streptococcus mutans; assay: Antibacterial activity against Streptococcus mutans ATCC 25175 assessed as effect on planktonic growth at 43.8 ug/ml after 20 hrs relative to control; assay type: functional
[4] = system: Streptococcus mutans; assay: Antibacterial activity against Streptococcus mutans ATCC 25175 assessed as effect on planktonic growth at 87.5 ug/ml after 20 hrs relative to control; assay type: functional
[5] = system: Staphylococcus aureus; assay: Antibacterial activity against Staphylococcus aureus ATCC 25923 assessed as effect on planktonic growth at 0.17 ug/ml after 20 hrs relative to control; assay type: functional
[6] = system: Staphylococcus aureus; assay: Antibacterial activity against Staphylococcus aureus ATCC 25923 assessed as effect on planktonic growth at 0.34 ug/ml after 20 hrs relative to control; assay type: functional
[7] = system: Staphylococcus aureus; assay: Antibacterial activity against Staphylococcus aureus ATCC 25923 assessed as effect on planktonic growth at 0.68 ug/ml after 20 hrs relative to control; assay type: functional
[8] = system: Staphylococcus aureus; assay: Antibacterial activity against Staphylococcus aureus ATCC 25923 assessed as effect on planktonic growth at 1.37 ug/ml after 20 hrs relative to control; assay type: functional
[9] = system: Staphylococcus aureus; assay: Antibacterial activity against Staphylococcus aureus ATCC 25923 assessed as effect on planktonic growth at 5.5 ug/ml after 20 hrs relative to control; assay type: functional
[10] = system: Staphylococcus aureus; assay: Antibacterial activity against Staphylococcus aureus ATCC 25923 assessed as effect on planktonic growth at 2.73 ug/ml after 20 hrs relative to control; assay type: functional
[11] = system: Staphylococcus aureus; assay: Antibacterial activity against Staphylococcus aureus ATCC 25923 assessed as effect on planktonic growth at 10.9 ug/ml after 20 hrs relative to control; assay type: functional
[12] = system: Staphylococcus aureus; assay: Antibacterial activity against Staphylococcus aureus ATCC 25923 assessed as effect on planktonic growth at 21.9 ug/ml after 20 hrs relative to control; assay type: functional
[13] = system: Staphylococcus aureus; assay: Antibacterial activity against Staphylococcus aureus ATCC 25923 assessed as effect on planktonic growth at 43.8 ug/ml after 20 hrs relative to control; assay type: functional
[14] = system: Staphylococcus aureus; assay: Antibacterial activity against Staphylococcus aureus ATCC 25923 assessed as effect on planktonic growth at 87.5 ug/ml after 20 hrs relative to control; assay type: functional
[15] = system: Pseudomonas aeruginosa; assay: Antibacterial activity against Pseudomonas aeruginosa ATCC 27853 assessed as effect on planktonic growth at 0.17 ug/ml after 20 hrs relative to control; assay type: functional
[16] = system: Pseudomonas aeruginosa; assay: Antibacterial activity against Pseudomonas aeruginosa ATCC 27853 assessed as effect on planktonic growth at 0.34 ug/ml after 20 hrs relative to control; assay type: functional
[17] = system: Pseudomonas aeruginosa; assay: Antibacterial activity against Pseudomonas aeruginosa ATCC 27853 assessed as effect on planktonic growth at 0.68 ug/ml after 20 hrs relative to control; assay type: functional
[18] = system: Pseudomonas aeruginosa; assay: Antibacterial activity against Pseudomonas aeruginosa ATCC 27853 assessed as effect on planktonic growth at 1.37 ug/ml after 20 hrs relative to control; assay type: functional
[19] = system: Pseudomonas aeruginosa; assay: Antibacterial activity against Pseudomonas aeruginosa ATCC 27853 assessed as effect on planktonic growth at 2.73 ug/ml after 20 hrs relative to control; assay type: functional
[20] = system: Pseudomonas aeruginosa; assay: Antibacterial activity against Pseudomonas aeruginosa ATCC 27853 assessed as effect on planktonic growth at 5.5 ug/ml after 20 hrs relative to control; assay type: functional
[21] = system: Pseudomonas aeruginosa; assay: Antibacterial activity against Pseudomonas aeruginosa ATCC 27853 assessed as effect on planktonic growth at 10.9 ug/ml after 20 hrs relative to control; assay type: functional
[22] = system: Pseudomonas aeruginosa; assay: Antibacterial activity against Pseudomonas aeruginosa ATCC 27853 assessed as effect on planktonic growth at 21.9 ug/ml after 20 hrs relative to control; assay type: functional
[23] = system: Pseudomonas aeruginosa; assay: Antibacterial activity against Pseudomonas aeruginosa ATCC 27853 assessed as effect on planktonic growth at 43.8 ug/ml after 20 hrs relative to control; assay type: functional
[24] = system: Pseudomonas aeruginosa; assay: Antibacterial activity against Pseudomonas aeruginosa ATCC 27853 assessed as effect on planktonic growth at 87.5 ug/ml after 20 hrs relative to control; assay type: functional
[25] = system: Staphylococcus epidermidis; assay: Antibacterial activity against Staphylococcus epidermidis ATCC 35547 assessed as effect on planktonic growth at 0.17 ug/ml after 20 hrs relative to control; assay type: functional
[26] = system: Staphylococcus epidermidis; assay: Antibacterial activity against Staphylococcus epidermidis ATCC 35547 assessed as effect on planktonic growth at 0.34 ug/ml after 20 hrs relative to control; assay type: functional
[27] = system: Staphylococcus epidermidis; assay: Antibacterial activity against Staphylococcus epidermidis ATCC 35547 assessed as effect on planktonic growth at 0.68 ug/ml after 20 hrs relative to control; assay type: functional
[28] = system: Staphylococcus epidermidis; assay: Antibacterial activity against Staphylococcus epidermidis ATCC 35547 assessed as effect on planktonic growth at 1.37 ug/ml after 20 hrs relative to control; assay type: functional
[29] = system: Staphylococcus epidermidis; assay: Antibacterial activity against Staphylococcus epidermidis ATCC 35547 assessed as effect on planktonic growth at 2.73 ug/ml after 20 hrs relative to control; assay type: functional
[30] = system: Staphylococcus epidermidis; assay: Antibacterial activity against Staphylococcus epidermidis ATCC 35547 assessed as effect on planktonic growth at 5.5 ug/ml after 20 hrs relative to control; assay type: functional
[31] = system: Staphylococcus epidermidis; assay: Antibacterial activity against Staphylococcus epidermidis ATCC 35547 assessed as effect on planktonic growth at 10.9 ug/ml after 20 hrs relative to control; assay type: functional
[32] = system: Staphylococcus epidermidis; assay: Antibacterial activity against Staphylococcus epidermidis ATCC 35547 assessed as effect on planktonic growth at 21.9 ug/ml after 20 hrs relative to control; assay type: functional
[33] = system: Staphylococcus epidermidis; assay: Antibacterial activity against Staphylococcus epidermidis ATCC 35547 assessed as effect on planktonic growth at 43.8 ug/ml after 20 hrs relative to control; assay type: functional
[34] = system: Staphylococcus epidermidis; assay: Antibacterial activity against Staphylococcus epidermidis ATCC 35547 assessed as effect on planktonic growth at 87.5 ug/ml after 20 hrs relative to control; assay type: functional
[35] = system: Streptococcus mutans; assay: Induction of biofilm formation in Streptococcus mutans ATCC 25175 at 44 ug/ml after 20 hrs by crystal-violet staining method relative to control
[36] = system: Pseudomonas aeruginosa; assay: Antibacterial activity against Pseudomonas aeruginosa ATCC 27853 assessed as inhibition of biofilm formation after 20 hrs by crystal-violet staining method; assay type: functional, organism-based
[37] = system: Staphylococcus epidermidis; assay: Antibacterial activity against Staphylococcus epidermidis ATCC 35547 assessed as inhibition of biofilm formation after 20 hrs by crystal-violet staining method; assay type: functional, organism-based
[38] = system: Streptococcus mutans; assay: Antibacterial activity against Streptococcus mutans ATCC 25175 assessed as effect on planktonic growth at 0.17 ug/ml after 20 hrs relative to control; assay type: functional
[39] = system: Streptococcus mutans; assay: Antibacterial activity against Streptococcus mutans ATCC 25175 assessed as effect on planktonic growth at 0.34 ug/ml after 20 hrs relative to control; assay type: functional
[40] = system: Streptococcus mutans; assay: Antibacterial activity against Streptococcus mutans ATCC 25175 assessed as effect on planktonic growth at 0.68 ug/ml after 20 hrs relative to control; assay type: functional
[41] = system: Streptococcus mutans; assay: Antibacterial activity against Streptococcus mutans ATCC 25175 assessed as effect on planktonic growth at 1.37 ug/ml after 20 hrs relative to control; assay type: functional
[42] = system: Streptococcus mutans; assay: Antibacterial activity against Streptococcus mutans ATCC 25175 assessed as effect on planktonic growth at 2.73 ug/ml after 20 hrs relative to control; assay type: functional
[43] = system: Streptococcus mutans; assay: Antibacterial activity against Streptococcus mutans ATCC 25175 assessed as effect on planktonic growth at 5.5 ug/ml after 20 hrs relative to control; assay type: functional
[44] = system: Streptococcus mutans; assay: Antibacterial activity against Streptococcus mutans ATCC 25175 assessed as effect on planktonic growth at 10.9 ug/ml after 20 hrs relative to control; assay type: functional

SMILES: O=C1C=C/C(=C/Br)O1
- inhibition at 6 µM [1]: 26%

- IC50 ([36]; ATCC 27853, 20 h): > 87.5 µg/mL
- IC50 ([37]; ATCC 35547, 20 h): > 87.5 µg/mL
SMILES: COc1ccc(C)cc1C1=C(Br)C(=O)O/C1=C\c1cccc(Cl)c1
- Activity [2]: 12.1%
- Activity [3]: 19.8%
- Activity [4]: 34.9%
- Activity [5]: 23%
- Activity [6]: 47.5%
- Activity [7]: 52.2%
- Activity [8]: 50.6%
- Activity [9]: 35.4%
- Activity [10]: 46.8%
- Activity [11]: 34.9%
- Activity [12]: 39.3%
- Activity [13]: 66.1%
- Activity [14]: 131%
- Activity [15]: -3%
- Activity [16]: -4.8%
- Activity [17]: -0.1%
- Activity [18]: 0.8%
- Activity [19]: -4.8%
- Activity [20]: -8.9%
- Activity [21]: -14%
- Activity [22]: -12.1%
- Activity [23]: -8.5%
- Activity [24]: 7.8%
- Activity [25]: 13.2%
- Activity [26]: 10.3%
- Activity [27]: 11.9%
- Activity [28]: 4.9%
- Activity [29]: -4%
- Activity [30]: 4%
- Activity [31]: -3.1%
- Activity [32]: 8.9%
- Activity [33]: 12.7%
- Activity [34]: 33.8%
- Activity [35]: Toxic
- inhibition [36]: Dose-dependent effect
- inhibition [37]: Dose-dependent effect
- Activity [38]: 10.2%
- Activity [39]: 9.9%
- Activity [40]: -5.8%
- Activity [41]: 0%
- Activity [42]: 8.2%
- Activity [43]: 5.2%
- Activity [44]: -2.7%
